In PubChem BioAssay (NCI):
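Each compound was tested at five concentrations against cells in 96-well plates for 48 hours. GI50 = concentration required for 50% inhibition of growth. TGI denotes the concentration required for complete inhibition of growth.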

Columns and labels:
Assay in all cases: DTP human tumour cell line panel, 48 h
786-0 renal = tested on: 786-0 renal
A549 NSCLC = tested on: A549 NSCLC
ACHN renal = tested on: ACHN renal
BT-549 breast = tested on: BT-549 breast
CAKI-1 renal = tested on: CAKI-1 renal
CCRF-CEM leukemia = tested on: CCRF-CEM leukemia
COLO 205 colon = tested on: COLO 205 colon
DU-145 prostate = tested on: DU-145 prostate
EKVX NSCLC = tested on: EKVX NSCLC
HCC-2998 colon = tested on: HCC-2998 colon
HCT-116 colon = tested on: HCT-116 colon
HCT-15 colon = tested on: HCT-15 colon
HL-60(TB) leukemia = tested on: HL-60(TB) leukemia
HOP-62 NSCLC = tested on: HOP-62 NSCLC
HOP-92 NSCLC = tested on: HOP-92 NSCLC
HS 578T breast = tested on: HS 578T breast
HT29 colon = tested on: HT29 colon
IGROV1 ovarian = tested on: IGROV1 ovarian
KM12 colon = tested on: KM12 colon
LOX IMVI melanoma = tested on: LOX IMVI melanoma
M14 melanoma = tested on: M14 melanoma
MCF7 breast = tested on: MCF7 breast
MDA-MB-231 breast = tested on: MDA-MB-231 breast
MDA-MB-435 = tested on: MDA-MB-435
MOLT-4 leukemia = tested on: MOLT-4 leukemia
NCI-H226 lung = tested on: NCI-H226 lung
NCI-H23 lung = tested on: NCI-H23 lung
NCI-H460 lung = tested on: NCI-H460 lung
NCI-H522 lung = tested on: NCI-H522 lung
NCI/ADR-RES ovarian = tested on: NCI/ADR-RES ovarian
OVCAR-3 ovarian = tested on: OVCAR-3 ovarian
OVCAR-4 ovarian = tested on: OVCAR-4 ovarian
OVCAR-5 ovarian = tested on: OVCAR-5 ovarian
OVCAR-8 ovarian = tested on: OVCAR-8 ovarian
PC-3 prostate = tested on: PC-3 prostate
RPMI-8226 leukemia = tested on: RPMI-8226 leukemia
RXF 393 renal = tested on: RXF 393 renal
SF-268 CNS = tested on: SF-268 CNS
SF-295 CNS = tested on: SF-295 CNS
SF-539 CNS = tested on: SF-539 CNS
SK-MEL-2 melanoma = tested on: SK-MEL-2 melanoma
SK-MEL-28 melanoma = tested on: SK-MEL-28 melanoma
SK-MEL-5 melanoma = tested on: SK-MEL-5 melanoma
SK-OV-3 ovarian = tested on: SK-OV-3 ovarian
SN12C renal = tested on: SN12C renal
SNB-19 CNS = tested on: SNB-19 CNS
SNB-75 CNS = tested on: SNB-75 CNS
SR leukemia = tested on: SR leukemia
T-47D breast = tested on: T-47D breast
TK-10 renal = tested on: TK-10 renal
U251 CNS = tested on: U251 CNS
UACC-257 melanoma = tested on: UACC-257 melanoma
UACC-62 melanoma = tested on: UACC-62 melanoma
UO-31 renal = tested on: UO-31 renal
A498 renal = tested on: A498 renal
K-562 leukemia = tested on: K-562 leukemia

## COC(=O)/C=C1/SC(=Nc2cccc(Cl)c2)N(CCc2c[nH]c3ccc(O)cc23)C1=O
786-0 renal
  GI50: 1670 nM
  TGI: 3400 nM
A549 NSCLC
  GI50: 2650 nM
  TGI: 6950 nM
ACHN renal
  GI50: 1730 nM
  TGI: 3330 nM
BT-549 breast
  GI50: 1240 nM
  TGI: 3050 nM
CAKI-1 renal
  GI50: 1830 nM
  TGI: 3670 nM
CCRF-CEM leukemia
  GI50: 931 nM
  TGI: 5270 nM
COLO 205 colon
  GI50: 2050 nM
  TGI: 4040 nM
DU-145 prostate
  GI50: 1860 nM
  TGI: 4810 nM
EKVX NSCLC
  GI50: 2190 nM
  TGI: 5510 nM
HCC-2998 colon
  GI50: 1880 nM
  TGI: 3480 nM
HCT-116 colon
  GI50: 1180 nM
  TGI: 2710 nM
HCT-15 colon
  GI50: 1500 nM
  TGI: 3320 nM
HL-60(TB) leukemia
  GI50: 1790 nM
  TGI: 6090 nM
HOP-62 NSCLC
  GI50: 1900 nM
  TGI: 3930 nM
HOP-92 NSCLC
  GI50: 2000 nM
  TGI: 4670 nM
HS 578T breast
  GI50: 2680 nM
  TGI: 8990 nM
HT29 colon
  GI50: 1870 nM
  TGI: 3570 nM
IGROV1 ovarian
  GI50: 2000 nM
  TGI: 4350 nM
KM12 colon
  GI50: 1530 nM
  TGI: 3290 nM
LOX IMVI melanoma
  GI50: 1520 nM
  TGI: 2980 nM
M14 melanoma
  GI50: 1620 nM
  TGI: 3360 nM
MCF7 breast
  GI50: 1690 nM
  TGI: 4730 nM
MDA-MB-231 breast
  GI50: 1740 nM
  TGI: 3590 nM
MDA-MB-435
  GI50: 1680 nM
  TGI: 3960 nM
MOLT-4 leukemia
  GI50: 1000 nM
  TGI: 5100 nM
NCI-H226 lung
  GI50: 1650 nM
  TGI: 3080 nM
NCI-H23 lung
  GI50: 1860 nM
  TGI: 4340 nM
NCI-H460 lung
  GI50: 2040 nM
  TGI: 4100 nM
NCI-H522 lung
  GI50: 1630 nM
  TGI: 3400 nM
NCI/ADR-RES ovarian
  GI50: 2410 nM
  TGI: 6890 nM
OVCAR-3 ovarian
  GI50: 1540 nM
  TGI: 3230 nM
OVCAR-4 ovarian
  GI50: 1400 nM
  TGI: 4440 nM
OVCAR-5 ovarian
  GI50: 1920 nM
  TGI: 4070 nM
OVCAR-8 ovarian
  GI50: 2320 nM
  TGI: 6720 nM
PC-3 prostate
  GI50: 1740 nM
  TGI: 3870 nM
RPMI-8226 leukemia
  GI50: 1240 nM
  TGI: 3980 nM
RXF 393 renal
  GI50: 1510 nM
  TGI: 2970 nM
SF-268 CNS
  GI50: 1760 nM
  TGI: 4470 nM
SF-295 CNS
  GI50: 1850 nM
  TGI: 4150 nM
SF-539 CNS
  GI50: 1630 nM
  TGI: 3240 nM
SK-MEL-2 melanoma
  GI50: 1530 nM
  TGI: 3080 nM
SK-MEL-28 melanoma
  GI50: 1690 nM
  TGI: 3330 nM
SK-MEL-5 melanoma
  GI50: 1990 nM
  TGI: 4190 nM
SK-OV-3 ovarian
  GI50: 2240 nM
  TGI: 5010 nM
SN12C renal
  GI50: 1790 nM
  TGI: 3670 nM
SNB-19 CNS
  GI50: 2570 nM
  TGI: 6880 nM
SNB-75 CNS
  GI50: 2110 nM
  TGI: 5100 nM
SR leukemia
  GI50: 522 nM
  TGI: 7130 nM
T-47D breast
  GI50: 2030 nM
  TGI: 7150 nM
TK-10 renal
  GI50: 2290 nM
  TGI: 5650 nM
U251 CNS
  GI50: 1760 nM
  TGI: 3510 nM
UACC-257 melanoma
  GI50: 1960 nM
  TGI: 3990 nM
UACC-62 melanoma
  GI50: 1680 nM
  TGI: 3470 nM
UO-31 renal
  GI50: 1430 nM
  TGI: 2880 nM

## CN(C)c1ccc(/C=C/C=c2/c3ccccc3n3c2cc(-c2ccccc2)[n+]3C)cc1
A498 renal
  TGI: 1230 nM
ACHN renal
  TGI: 1630 nM
CAKI-1 renal
  TGI: 1170 nM
CCRF-CEM leukemia
  TGI: > 100000 nM
DU-145 prostate
  TGI: 1030 nM
EKVX NSCLC
  TGI: 1570 nM
HL-60(TB) leukemia
  TGI: 509 nM
HOP-62 NSCLC
  TGI: 1190 nM
K-562 leukemia
  TGI: > 100000 nM
MOLT-4 leukemia
  TGI: 724 nM
NCI-H226 lung
  TGI: 1820 nM
NCI/ADR-RES ovarian
  TGI: > 100000 nM
OVCAR-4 ovarian
  TGI: 2110 nM
PC-3 prostate
  TGI: 1170 nM
RXF 393 renal
  TGI: 1620 nM
